In ChEMBL document CHEMBL5465560, “Selectivity Literature for EUbOPEN Chemogenomic Library” (2024):

Columns and labels:
[1] = system: Leucine-rich repeat serine/threonine-protein kinase 2 (Homo sapiens), Q5S007 [G2019S]; experiment: (§1) Selectivity interaction (KinomeScan (DiscoverX)) EUB0000092b LRRK2; details: at 10 µM
[2] = target: T1, Leucine-rich repeat serine/threonine-protein kinase 2 (Homo sapiens, UniProt Q5S007); experiment: as §1; details: at 10 µM
[3] = target: Serine/threonine-protein kinase 10 (Homo sapiens) (UniProt O94804); experiment: Selectivity interaction (KinomeScan (DiscoverX)) EUB0000092b STK10; details: at 10 µM
[4] = target: T2, Cyclin-dependent kinase-like 2 (Homo sapiens) (UniProt Q92772); experiment: Selectivity interaction (KinomeScan (DiscoverX)) EUB0000666a CDKL2; details: at 10 µM
T2 sequence (whole entry): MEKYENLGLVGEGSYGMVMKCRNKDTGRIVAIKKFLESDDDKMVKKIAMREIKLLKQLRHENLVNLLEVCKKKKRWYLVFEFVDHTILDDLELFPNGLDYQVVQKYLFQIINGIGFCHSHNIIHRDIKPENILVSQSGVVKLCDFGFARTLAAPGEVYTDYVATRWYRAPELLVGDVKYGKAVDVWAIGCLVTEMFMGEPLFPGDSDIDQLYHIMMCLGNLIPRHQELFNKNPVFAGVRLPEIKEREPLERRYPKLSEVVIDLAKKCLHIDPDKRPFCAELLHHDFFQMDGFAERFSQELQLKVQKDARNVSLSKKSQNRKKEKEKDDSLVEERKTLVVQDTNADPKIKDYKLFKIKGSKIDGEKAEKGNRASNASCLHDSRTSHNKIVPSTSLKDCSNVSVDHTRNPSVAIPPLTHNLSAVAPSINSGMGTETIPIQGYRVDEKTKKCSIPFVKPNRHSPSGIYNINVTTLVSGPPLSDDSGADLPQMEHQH

[5] = target: Dual specificity mitogen-activated protein kinase kinase 1 (Homo sapiens, UniProt Q02750); experiment: Selectivity interaction (Kinase panel (Z-LYTE Assay)) EUB0001632a MAP2K1; details: at 10 µM
OATP1B1 (SLCO1B1) = OATP1B1 (SLCO1B1) (Homo sapiens, UniProt Q9Y6L6); experiment: Selectivity interaction (Panel of kinases, GPCRs, ion channels and transporters (enzymatic assay)) EUB0000223bCl SLCO1B1; details: not told
[6] = system: Leucine-rich repeat serine/threonine-protein kinase 2 (Homo sapiens), Q5S007 [G2019S]; experiment: (§2) Selectivity interaction (KinomeScan (DiscoverX)) EUB0000607a LRRK2; details: at 10 µM
[7] = target: T1, Leucine-rich repeat serine/threonine-protein kinase 2; experiment: as §2; details: at 10 µM
[8] = target: T3, Mitogen-activated protein kinase kinase kinase 12 (Homo sapiens) (UniProt Q12852); experiment: Selectivity interaction (KinomeScan (DiscoverX)) EUB0000595a MAP3K12; details: at 10 µM
T3 sequence (whole entry): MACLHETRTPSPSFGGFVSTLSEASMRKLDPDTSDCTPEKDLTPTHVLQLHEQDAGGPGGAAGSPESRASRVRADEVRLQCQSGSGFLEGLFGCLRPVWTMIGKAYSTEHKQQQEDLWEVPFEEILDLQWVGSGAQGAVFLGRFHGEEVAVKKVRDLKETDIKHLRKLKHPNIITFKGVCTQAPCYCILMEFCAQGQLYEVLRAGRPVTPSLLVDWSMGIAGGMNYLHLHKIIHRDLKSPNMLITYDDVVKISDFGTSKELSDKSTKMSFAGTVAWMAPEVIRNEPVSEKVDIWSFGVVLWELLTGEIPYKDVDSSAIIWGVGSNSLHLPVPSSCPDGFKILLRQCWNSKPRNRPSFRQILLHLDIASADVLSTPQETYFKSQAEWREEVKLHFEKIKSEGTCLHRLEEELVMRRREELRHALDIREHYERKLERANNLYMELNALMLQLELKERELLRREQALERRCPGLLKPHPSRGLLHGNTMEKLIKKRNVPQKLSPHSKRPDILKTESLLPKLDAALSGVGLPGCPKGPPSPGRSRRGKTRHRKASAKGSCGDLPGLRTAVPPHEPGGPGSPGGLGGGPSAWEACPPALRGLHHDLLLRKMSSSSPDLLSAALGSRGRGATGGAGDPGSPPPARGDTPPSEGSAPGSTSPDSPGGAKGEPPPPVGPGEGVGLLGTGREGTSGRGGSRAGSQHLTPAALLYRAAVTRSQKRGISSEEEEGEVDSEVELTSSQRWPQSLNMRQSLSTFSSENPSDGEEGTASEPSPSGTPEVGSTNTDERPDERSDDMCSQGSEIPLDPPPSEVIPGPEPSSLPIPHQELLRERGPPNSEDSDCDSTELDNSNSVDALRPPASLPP

[9] = target: Protein kinase C beta type (Homo sapiens, UniProt P05771); experiment: Selectivity interaction (Kinase panel (literature)) EUB0001199aCl PRKCB; details: at 1 µM
[10] = target: Mitogen-activated protein kinase 1 (Homo sapiens, UniProt P28482); experiment: Selectivity interaction (KinomeScan (DiscoverX)) EUB0000618a MAPK1; details: at 10 µM
[11] = target: BMP-2-inducible protein kinase (Homo sapiens) (UniProt Q9NSY1); experiment: Selectivity interaction (Ambit KINOMEscan and KiNATiv profiling in Jurkat cells) EUB0000090b BMP2K; format: cell-based; details: at 1 µM
[12] = target: Vascular endothelial growth factor receptor 1 (Homo sapiens) (UniProt P17948); experiment: Selectivity interaction (Ambit KINOMEscan and KiNATiv profiling in Jurkat cells) EUB0000090b FLT1; format: cell-based; details: at 1 µM
[13] = target: Serine/threonine-protein kinase MARK2 (Homo sapiens) (UniProt Q7KZI7); experiment: Selectivity interaction (Ambit KINOMEscan and KiNATiv profiling in Jurkat cells) EUB0000090b MARK2; format: cell-based; details: at 1 µM

T1 sequence (Q5S007 whole entry): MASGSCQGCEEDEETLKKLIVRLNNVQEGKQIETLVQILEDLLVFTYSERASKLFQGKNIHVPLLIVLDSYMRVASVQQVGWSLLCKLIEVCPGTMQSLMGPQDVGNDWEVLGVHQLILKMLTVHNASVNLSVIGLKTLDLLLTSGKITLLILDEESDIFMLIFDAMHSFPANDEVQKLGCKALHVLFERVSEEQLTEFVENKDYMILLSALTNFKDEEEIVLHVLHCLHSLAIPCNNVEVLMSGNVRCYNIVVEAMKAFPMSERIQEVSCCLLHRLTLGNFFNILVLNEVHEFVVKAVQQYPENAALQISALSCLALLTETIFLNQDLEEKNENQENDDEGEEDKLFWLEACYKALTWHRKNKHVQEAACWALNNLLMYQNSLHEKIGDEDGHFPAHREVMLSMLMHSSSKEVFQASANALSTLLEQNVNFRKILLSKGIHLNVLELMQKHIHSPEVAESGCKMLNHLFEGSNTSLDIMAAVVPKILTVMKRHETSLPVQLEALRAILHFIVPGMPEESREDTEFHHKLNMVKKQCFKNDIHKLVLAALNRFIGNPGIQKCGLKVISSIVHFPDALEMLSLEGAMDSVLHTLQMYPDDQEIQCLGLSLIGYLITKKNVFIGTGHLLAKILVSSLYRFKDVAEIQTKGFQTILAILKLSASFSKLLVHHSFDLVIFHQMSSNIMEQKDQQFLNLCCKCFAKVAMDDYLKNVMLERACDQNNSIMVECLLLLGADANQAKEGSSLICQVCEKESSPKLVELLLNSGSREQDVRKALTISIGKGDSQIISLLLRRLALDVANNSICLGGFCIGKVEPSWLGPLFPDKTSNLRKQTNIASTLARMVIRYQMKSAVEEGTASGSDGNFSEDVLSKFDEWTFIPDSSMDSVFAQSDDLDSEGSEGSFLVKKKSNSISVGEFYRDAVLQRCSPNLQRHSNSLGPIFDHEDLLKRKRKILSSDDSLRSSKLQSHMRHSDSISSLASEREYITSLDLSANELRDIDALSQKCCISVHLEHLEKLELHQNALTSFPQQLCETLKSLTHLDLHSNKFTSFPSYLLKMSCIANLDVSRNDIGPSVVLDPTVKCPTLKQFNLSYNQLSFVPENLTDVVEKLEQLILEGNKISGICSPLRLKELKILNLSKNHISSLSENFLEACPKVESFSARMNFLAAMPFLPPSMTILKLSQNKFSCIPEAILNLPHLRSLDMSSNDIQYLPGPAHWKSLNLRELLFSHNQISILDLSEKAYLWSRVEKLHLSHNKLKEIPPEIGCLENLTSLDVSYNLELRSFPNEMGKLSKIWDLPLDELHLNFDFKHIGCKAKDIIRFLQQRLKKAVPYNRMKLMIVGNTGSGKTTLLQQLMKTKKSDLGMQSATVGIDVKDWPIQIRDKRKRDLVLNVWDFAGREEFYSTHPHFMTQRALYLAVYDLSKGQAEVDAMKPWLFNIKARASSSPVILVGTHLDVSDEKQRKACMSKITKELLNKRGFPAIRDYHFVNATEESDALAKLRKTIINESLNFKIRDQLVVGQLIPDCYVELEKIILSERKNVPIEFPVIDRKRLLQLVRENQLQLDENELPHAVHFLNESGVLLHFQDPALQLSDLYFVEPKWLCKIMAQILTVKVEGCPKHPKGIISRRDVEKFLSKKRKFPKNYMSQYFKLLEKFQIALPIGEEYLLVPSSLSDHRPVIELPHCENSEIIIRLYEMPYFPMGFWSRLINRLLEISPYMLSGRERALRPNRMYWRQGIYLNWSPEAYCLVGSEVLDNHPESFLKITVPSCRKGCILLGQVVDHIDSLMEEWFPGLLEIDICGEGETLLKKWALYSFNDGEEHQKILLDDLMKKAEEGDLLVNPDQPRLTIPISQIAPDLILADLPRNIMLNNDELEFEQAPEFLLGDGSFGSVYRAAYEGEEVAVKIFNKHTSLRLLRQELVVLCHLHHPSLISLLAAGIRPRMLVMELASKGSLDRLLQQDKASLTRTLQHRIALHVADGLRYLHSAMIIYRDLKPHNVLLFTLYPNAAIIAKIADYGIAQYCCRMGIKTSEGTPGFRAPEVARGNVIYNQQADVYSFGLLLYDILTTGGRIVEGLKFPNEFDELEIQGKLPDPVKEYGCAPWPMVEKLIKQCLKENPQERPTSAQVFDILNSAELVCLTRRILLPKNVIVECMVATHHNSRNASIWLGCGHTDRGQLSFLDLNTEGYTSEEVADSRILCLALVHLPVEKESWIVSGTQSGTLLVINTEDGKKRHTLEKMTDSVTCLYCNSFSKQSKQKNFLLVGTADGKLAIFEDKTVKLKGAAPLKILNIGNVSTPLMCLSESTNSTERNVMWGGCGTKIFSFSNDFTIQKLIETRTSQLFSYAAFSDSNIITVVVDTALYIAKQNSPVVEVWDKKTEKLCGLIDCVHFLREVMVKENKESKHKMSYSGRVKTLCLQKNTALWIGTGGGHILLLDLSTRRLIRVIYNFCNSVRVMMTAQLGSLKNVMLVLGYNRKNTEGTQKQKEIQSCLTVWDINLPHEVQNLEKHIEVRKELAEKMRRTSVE
Leucine-rich repeat serine/threonine-protein kinase 2 (Homo sapiens), Q5S007 [G2019S], sequence (Q5S007 whole entry G2019S): as the sequence (Q5S007 whole entry) above, with G2019S counted along it
Serine/threonine-protein kinase 10 (Homo sapiens), sequence (O94804 whole entry, looked up): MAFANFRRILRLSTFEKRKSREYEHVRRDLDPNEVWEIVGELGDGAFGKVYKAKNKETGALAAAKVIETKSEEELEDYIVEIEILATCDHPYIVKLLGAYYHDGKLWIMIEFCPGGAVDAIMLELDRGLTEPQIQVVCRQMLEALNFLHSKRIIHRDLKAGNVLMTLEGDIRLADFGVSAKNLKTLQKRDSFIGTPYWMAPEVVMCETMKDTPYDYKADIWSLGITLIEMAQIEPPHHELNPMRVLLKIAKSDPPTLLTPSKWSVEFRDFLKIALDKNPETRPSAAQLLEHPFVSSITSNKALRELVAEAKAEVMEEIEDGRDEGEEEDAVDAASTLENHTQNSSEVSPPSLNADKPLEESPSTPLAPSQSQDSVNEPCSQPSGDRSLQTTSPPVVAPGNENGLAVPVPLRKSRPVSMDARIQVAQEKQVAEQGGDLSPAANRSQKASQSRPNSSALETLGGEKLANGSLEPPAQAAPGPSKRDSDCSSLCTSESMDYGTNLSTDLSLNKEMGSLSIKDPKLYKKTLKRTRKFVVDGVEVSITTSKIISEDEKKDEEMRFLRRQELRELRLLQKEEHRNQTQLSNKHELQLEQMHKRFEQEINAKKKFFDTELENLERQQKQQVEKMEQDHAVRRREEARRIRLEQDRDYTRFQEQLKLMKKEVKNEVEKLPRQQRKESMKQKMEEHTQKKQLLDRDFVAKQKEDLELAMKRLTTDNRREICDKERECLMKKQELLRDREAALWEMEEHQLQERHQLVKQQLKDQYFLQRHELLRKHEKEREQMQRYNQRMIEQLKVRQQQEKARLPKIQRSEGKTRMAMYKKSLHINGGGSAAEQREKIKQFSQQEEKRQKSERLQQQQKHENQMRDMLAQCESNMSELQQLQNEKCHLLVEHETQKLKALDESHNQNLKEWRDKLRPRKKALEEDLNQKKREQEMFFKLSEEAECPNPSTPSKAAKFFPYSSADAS
OATP1B1 (SLCO1B1), sequence (Q9Y6L6 whole entry): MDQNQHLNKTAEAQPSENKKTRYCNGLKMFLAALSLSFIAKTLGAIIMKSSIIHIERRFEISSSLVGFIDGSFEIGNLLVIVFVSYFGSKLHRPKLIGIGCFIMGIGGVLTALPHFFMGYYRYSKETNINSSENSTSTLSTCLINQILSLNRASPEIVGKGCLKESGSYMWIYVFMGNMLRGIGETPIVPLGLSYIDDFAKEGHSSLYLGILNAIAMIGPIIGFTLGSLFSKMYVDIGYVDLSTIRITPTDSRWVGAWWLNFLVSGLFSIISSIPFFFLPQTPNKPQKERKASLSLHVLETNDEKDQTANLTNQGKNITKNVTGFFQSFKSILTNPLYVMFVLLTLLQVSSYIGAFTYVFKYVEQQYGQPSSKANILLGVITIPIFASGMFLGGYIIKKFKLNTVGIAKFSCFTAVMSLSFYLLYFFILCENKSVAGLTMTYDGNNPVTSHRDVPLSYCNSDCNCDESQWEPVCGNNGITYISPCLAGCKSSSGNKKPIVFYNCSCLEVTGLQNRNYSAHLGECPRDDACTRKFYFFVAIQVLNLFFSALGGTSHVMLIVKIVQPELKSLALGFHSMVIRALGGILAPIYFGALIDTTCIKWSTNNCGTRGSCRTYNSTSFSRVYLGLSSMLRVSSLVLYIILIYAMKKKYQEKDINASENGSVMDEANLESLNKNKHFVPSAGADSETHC
Protein kinase C beta type, sequence (P05771 2-671 limits assumed): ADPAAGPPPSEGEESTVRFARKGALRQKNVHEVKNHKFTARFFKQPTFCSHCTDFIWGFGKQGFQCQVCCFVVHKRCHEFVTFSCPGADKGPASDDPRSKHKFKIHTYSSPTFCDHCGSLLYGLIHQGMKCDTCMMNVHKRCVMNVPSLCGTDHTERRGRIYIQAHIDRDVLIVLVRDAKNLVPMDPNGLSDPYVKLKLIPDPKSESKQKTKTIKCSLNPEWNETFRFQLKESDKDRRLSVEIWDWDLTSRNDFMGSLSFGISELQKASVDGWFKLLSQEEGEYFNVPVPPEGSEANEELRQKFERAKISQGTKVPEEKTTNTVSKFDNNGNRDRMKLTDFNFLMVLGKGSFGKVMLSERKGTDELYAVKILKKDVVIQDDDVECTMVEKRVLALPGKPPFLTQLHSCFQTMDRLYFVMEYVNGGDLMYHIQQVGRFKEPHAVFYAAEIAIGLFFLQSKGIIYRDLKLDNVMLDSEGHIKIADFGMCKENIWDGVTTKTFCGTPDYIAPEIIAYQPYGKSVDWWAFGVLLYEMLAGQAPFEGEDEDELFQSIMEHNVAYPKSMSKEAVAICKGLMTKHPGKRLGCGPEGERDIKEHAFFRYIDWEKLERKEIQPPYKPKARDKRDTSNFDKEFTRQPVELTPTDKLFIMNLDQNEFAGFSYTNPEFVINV

CCC(=O)N1CCN(c2ccc(-n3c(=O)ccc4cnc5ccc(-c6cnc7ccccc7c6)cc5c43)cc2C(F)(F)F)CC1
% of control [1]: 99% | % of control [2]: 81% | % of control [3]: 79%

O=C(NOC[C@H](O)CO)c1ccc(F)c(F)c1Nc1ccc(I)cc1F
% of control [4]: 87%

Cn1cc(-n2cnc3c(NCc4nc5cc(Cl)c(Cl)cc5[nH]4)nc(N4CCOCC4)nc32)cn1
% of control [5]: -2.06%

COc1cc(C(=O)N2CC[C@@H](O)[C@@H](N)C2)cc2nc(-c3cc4ccccc4n3CC3CC3)n(C)c12
XC50 (OATP1B1 (SLCO1B1)): 7.94 µM

CNC(=O)Nc1ccc(-c2nc(N3CC4CCC(C3)O4)c3cnn(C4CCC5(CC4)OCCO5)c3n2)cc1
% of control [6]: 65% | % of control [7]: 82%

COCC(=O)NC/C=C/c1ccc2ncnc(Nc3ccc(Oc4ccc(C)nc4)c(C)c3)c2c1 [CP-724714]
% of control [8]: 92%

CN1Cc2nccc(-c3cn(C)nc3-c3ccc(F)cc3)c2C1=O
% of inhibition [9]: -2%

O[C@H]1CC[C@H](Nc2ncc3nc(Nc4c(F)cc(F)cc4F)n([C@H]4CCOC4)c3n2)CC1
% of control [10]: 15%

CN(C)C/C=C/C(=O)Nc1ccc(C(=O)N2CCCC(Nc3ncc(Cl)c(-c4c[nH]c5ccccc45)n3)C2)cc1 (centres undefined)
% of control [11]: 100% | % of control [12]: 85% | % of control [13]: 78%
